Assay results reported in doi:10.1101/2024.08.13.607785v1 (biorxiv, 2024).

Legend:
[1] = molecular target: Non-receptor tyrosine-protein kinase TYK2 ; TYK2 ; P29597 (Homo sapiens, UniProt P29597); assay: biochemical; set-up: species or system human cell line lysate
[2] = molecular target: T1, Cyclin-dependent kinase-like 5 ; CDKL5 ; O76039 (Homo sapiens, UniProt O76039); assay: biochemical; set-up: species or system human cell line lysate
T1 sequence (O76039 1-960): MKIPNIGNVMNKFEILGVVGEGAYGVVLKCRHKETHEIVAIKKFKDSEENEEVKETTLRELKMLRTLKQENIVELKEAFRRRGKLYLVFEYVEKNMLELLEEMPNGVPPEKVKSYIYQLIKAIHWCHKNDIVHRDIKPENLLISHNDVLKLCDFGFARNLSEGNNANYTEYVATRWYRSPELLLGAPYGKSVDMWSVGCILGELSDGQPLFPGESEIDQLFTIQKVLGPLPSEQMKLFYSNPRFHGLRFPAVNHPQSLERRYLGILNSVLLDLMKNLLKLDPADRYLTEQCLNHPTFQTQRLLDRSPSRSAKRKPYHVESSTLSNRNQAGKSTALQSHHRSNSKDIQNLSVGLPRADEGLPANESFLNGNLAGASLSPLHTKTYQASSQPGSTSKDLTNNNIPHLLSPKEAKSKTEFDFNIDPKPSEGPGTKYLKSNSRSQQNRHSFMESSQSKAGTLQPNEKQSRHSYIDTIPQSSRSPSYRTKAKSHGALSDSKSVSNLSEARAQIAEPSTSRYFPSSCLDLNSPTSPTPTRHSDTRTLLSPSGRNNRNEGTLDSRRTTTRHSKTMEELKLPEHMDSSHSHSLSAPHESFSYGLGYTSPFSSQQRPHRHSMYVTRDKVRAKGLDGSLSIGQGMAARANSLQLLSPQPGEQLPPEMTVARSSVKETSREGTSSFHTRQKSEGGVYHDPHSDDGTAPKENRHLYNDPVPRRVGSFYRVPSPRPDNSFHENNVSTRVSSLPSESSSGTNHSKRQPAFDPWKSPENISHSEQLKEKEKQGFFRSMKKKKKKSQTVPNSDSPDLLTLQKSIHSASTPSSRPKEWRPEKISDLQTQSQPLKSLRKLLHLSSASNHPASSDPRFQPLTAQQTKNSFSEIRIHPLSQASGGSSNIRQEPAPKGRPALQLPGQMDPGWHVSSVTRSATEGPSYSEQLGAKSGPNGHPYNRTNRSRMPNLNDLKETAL

[3] = molecular target: Serine/threonine-protein kinase SIK2 ; SIK2 ; Q9H0K1 (Homo sapiens, UniProt Q9H0K1); set-up: species or system mixed lysate of K562, MV4-11, THP-1, NCI-H1155; conditions: DDA-MS residual binding; binder
[4] = molecular target: T2, Dual specificity mitogen-activated protein kinase kinase 3 ; MAP2K3 ; P46734 (Homo sapiens, UniProt P46734); set-up: species or system mixed lysate of K562, MV4-11, THP-1, NCI-H1155; conditions: DDA-MS residual binding; binder
T2 sequence (P46734 1-347): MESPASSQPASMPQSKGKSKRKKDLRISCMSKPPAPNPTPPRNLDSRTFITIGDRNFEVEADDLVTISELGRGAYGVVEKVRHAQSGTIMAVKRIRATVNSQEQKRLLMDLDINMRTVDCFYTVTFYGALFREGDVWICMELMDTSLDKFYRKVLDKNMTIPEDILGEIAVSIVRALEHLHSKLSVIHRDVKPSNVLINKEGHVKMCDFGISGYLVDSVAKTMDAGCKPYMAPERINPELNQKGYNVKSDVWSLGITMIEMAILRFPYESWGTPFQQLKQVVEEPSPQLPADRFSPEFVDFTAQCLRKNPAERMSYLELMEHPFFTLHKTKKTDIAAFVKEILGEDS

[5] = molecular target: Mitogen-activated protein kinase kinase kinase 4 ; MAP3K4 ; Q9Y6R4 (Homo sapiens, UniProt Q9Y6R4); set-up: species or system mixed lysate of K562, MV4-11, THP-1, NCI-H1155; conditions: binder
[6] = molecular target: Tyrosine-protein kinase CSK ; CSK ; P41240 (Homo sapiens, UniProt P41240); set-up: species or system mixed lysate of K562, MV4-11, THP-1, NCI-H1155; conditions: binder
Tyrosine-protein kinase CSK ; CSK ; P41240, sequence (P41240 whole entry): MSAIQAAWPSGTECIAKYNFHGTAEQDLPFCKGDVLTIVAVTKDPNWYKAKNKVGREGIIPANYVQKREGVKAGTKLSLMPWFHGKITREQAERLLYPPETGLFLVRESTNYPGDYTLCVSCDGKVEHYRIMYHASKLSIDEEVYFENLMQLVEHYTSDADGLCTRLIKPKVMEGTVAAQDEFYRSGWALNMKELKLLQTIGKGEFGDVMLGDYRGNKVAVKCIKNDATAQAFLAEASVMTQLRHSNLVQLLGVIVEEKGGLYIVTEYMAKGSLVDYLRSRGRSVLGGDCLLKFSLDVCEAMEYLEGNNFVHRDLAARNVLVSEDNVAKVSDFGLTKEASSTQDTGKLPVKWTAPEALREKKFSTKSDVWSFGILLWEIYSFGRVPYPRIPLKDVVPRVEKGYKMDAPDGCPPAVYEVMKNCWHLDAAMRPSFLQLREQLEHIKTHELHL

[7] = molecular target: Phosphatidylinositol 4-kinase alpha ; PI4KA ; P42356 (Homo sapiens, UniProt P42356); set-up: species or system mixed lysate of K562, MV4-11, THP-1, NCI-H1155; conditions: DDA-MS residual binding; binder
[8] = molecular target: Tyrosine-protein kinase Fgr ; FGR ; P09769 (Homo sapiens, UniProt P09769); set-up: species or system mixed lysate of K562, MV4-11, THP-1, NCI-H1155; conditions: binder
[9] = molecular target: Epithelial discoidin domain-containing receptor 1 ; DDR1 ; Q08345 (Homo sapiens, UniProt Q08345); set-up: species or system mixed lysate of K562, MV4-11, THP-1, NCI-H1155; conditions: binder
Epithelial discoidin domain-containing receptor 1 ; DDR1 ; Q08345, sequence (Q08345 whole entry, the tested form may be a part): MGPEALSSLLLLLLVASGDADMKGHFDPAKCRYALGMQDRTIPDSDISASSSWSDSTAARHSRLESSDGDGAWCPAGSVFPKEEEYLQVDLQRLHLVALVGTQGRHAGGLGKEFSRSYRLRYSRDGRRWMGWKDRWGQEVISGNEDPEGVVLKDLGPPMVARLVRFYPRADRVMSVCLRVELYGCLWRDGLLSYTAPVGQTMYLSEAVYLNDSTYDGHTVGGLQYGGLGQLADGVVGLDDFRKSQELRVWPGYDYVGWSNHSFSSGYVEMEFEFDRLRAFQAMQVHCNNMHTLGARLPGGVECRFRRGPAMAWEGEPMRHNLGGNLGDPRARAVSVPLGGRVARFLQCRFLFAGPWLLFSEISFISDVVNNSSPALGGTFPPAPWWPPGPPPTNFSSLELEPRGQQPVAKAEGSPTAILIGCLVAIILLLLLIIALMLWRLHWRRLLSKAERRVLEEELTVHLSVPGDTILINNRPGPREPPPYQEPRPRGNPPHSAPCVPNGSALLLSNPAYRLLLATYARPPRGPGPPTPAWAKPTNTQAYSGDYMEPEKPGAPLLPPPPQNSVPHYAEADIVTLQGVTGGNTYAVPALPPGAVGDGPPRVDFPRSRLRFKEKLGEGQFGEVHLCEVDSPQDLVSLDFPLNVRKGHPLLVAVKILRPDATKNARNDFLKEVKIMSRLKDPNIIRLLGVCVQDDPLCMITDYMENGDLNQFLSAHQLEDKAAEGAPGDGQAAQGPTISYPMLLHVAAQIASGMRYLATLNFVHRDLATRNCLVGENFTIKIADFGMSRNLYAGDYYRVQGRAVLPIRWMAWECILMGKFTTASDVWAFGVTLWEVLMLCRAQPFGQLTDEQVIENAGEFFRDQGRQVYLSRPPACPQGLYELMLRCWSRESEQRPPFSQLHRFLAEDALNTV

[10] = molecular target: Serine/threonine-protein kinase LMTK2 ; LMTK2 ; Q8IWU2 (Homo sapiens, UniProt Q8IWU2); set-up: species or system mixed lysate of K562, MV4-11, THP-1, NCI-H1155; conditions: DDA-MS residual binding; binder
Serine/threonine-protein kinase LMTK2 ; LMTK2 ; Q8IWU2, sequence (Q8IWU2 whole entry, one chain of several): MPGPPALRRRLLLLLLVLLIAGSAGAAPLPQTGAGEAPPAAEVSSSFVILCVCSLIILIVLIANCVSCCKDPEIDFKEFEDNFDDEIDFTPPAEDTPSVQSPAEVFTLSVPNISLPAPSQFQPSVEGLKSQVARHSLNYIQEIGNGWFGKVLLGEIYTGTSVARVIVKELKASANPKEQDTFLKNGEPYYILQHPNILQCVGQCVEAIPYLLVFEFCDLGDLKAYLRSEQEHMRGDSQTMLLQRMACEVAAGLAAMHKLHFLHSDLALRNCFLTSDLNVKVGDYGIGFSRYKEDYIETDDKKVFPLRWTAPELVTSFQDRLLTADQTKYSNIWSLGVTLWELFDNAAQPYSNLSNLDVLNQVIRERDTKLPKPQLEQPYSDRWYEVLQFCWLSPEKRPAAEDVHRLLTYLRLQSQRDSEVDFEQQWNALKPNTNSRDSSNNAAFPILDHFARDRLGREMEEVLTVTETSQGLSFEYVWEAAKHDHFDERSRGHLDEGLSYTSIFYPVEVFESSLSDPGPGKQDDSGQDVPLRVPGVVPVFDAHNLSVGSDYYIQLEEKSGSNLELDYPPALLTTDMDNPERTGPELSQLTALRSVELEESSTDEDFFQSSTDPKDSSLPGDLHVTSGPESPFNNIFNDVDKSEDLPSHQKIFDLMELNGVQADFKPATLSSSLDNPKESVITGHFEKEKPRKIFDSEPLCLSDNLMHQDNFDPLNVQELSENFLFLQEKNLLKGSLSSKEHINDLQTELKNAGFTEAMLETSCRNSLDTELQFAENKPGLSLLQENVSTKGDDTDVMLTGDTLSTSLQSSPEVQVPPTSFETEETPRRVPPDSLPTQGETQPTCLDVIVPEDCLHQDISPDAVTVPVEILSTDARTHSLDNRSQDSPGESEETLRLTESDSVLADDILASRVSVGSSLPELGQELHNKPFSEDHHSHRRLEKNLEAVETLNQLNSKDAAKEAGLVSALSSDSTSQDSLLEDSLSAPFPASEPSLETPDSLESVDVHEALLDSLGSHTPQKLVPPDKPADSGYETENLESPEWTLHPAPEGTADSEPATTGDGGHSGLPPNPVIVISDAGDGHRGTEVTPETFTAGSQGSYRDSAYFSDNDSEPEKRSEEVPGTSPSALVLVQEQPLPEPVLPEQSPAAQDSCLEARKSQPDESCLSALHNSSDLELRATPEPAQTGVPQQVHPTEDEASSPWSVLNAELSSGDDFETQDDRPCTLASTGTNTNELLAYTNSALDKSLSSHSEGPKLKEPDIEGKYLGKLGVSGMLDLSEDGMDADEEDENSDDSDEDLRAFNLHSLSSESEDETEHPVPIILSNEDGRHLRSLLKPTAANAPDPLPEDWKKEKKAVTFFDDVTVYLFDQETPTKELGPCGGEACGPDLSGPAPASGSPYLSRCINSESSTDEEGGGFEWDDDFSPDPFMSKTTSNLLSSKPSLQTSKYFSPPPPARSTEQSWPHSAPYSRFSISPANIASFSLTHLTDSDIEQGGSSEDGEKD

[11] = molecular target: Tyrosine-protein kinase Yes ; YES1 ; P07947 (Homo sapiens, UniProt P07947); set-up: species or system mixed lysate of K562, MV4-11, THP-1, NCI-H1155; conditions: binder
Tyrosine-protein kinase Yes ; YES1 ; P07947, sequence (P07947 whole entry): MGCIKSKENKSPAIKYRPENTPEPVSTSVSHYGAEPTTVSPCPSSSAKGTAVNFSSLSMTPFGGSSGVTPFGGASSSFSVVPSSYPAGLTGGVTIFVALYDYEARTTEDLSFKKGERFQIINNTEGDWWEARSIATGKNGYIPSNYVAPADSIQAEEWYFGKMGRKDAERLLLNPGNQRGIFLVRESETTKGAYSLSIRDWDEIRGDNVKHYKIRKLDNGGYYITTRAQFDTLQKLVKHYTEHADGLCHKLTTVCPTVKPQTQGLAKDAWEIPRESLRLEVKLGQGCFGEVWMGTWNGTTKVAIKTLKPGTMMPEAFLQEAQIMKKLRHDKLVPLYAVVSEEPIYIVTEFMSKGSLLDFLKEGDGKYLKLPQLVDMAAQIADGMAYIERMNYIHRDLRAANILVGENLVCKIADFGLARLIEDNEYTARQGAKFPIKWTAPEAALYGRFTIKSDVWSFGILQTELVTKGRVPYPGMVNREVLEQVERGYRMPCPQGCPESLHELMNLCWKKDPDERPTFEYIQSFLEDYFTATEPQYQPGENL

[12] = molecular target: Tyrosine-protein kinase FRK ; FRK ; P42685 (Homo sapiens, UniProt P42685); set-up: species or system mixed lysate of K562, MV4-11, THP-1, NCI-H1155; conditions: DDA-MS residual binding; binder
Tyrosine-protein kinase FRK ; FRK ; P42685, sequence (P42685 whole entry): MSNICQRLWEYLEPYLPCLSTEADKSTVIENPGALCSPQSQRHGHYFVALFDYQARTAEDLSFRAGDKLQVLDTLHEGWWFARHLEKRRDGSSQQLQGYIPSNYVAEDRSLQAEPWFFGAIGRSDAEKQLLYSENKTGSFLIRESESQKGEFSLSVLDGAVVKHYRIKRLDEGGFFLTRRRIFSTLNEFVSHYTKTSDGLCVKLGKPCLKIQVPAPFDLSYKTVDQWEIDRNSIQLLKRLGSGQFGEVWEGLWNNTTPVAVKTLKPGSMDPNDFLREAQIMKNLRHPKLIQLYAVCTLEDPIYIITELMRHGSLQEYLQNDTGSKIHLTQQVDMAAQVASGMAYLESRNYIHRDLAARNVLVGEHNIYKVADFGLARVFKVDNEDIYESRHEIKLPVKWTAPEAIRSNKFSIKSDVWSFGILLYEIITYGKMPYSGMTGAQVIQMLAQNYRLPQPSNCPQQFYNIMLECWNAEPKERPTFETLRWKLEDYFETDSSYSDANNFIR

Non-receptor tyrosine-protein kinase TYK2 ; TYK2 ; P29597, sequence (P29597 whole entry): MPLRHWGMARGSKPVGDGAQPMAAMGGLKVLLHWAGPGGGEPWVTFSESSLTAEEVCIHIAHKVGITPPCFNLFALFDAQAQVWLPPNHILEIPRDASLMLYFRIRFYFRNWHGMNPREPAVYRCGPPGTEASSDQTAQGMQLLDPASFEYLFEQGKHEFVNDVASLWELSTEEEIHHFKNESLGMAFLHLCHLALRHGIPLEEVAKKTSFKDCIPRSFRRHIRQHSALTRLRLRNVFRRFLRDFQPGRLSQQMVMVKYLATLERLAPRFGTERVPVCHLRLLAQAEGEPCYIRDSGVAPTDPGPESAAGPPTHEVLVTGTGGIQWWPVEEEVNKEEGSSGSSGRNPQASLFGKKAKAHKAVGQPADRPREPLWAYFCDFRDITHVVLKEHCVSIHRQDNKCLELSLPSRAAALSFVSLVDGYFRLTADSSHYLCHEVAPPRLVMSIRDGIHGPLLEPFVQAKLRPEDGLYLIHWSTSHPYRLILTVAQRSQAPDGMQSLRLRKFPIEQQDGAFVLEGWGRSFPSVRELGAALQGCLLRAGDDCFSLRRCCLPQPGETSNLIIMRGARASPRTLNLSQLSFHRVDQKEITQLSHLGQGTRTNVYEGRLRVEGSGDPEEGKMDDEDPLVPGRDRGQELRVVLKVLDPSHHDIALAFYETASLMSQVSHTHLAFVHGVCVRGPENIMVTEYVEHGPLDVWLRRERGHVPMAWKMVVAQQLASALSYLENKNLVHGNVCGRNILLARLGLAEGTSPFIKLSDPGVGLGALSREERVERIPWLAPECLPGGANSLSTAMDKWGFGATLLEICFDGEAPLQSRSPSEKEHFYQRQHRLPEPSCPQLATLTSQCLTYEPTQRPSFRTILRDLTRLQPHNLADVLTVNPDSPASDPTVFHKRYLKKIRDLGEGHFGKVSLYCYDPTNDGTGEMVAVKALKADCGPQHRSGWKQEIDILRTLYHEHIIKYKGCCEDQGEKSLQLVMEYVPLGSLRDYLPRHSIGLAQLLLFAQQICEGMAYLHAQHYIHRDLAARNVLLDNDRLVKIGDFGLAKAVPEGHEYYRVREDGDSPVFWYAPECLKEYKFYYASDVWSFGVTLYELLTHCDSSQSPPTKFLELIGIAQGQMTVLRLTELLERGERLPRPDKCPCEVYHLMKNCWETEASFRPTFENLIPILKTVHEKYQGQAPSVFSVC

Row | SMILES | IC50 [1] [µM] | IC50 [2] [µM] | DDA-MS / % Intensity (30 µM/DMSO) [3] [%] | DDA-MS / % Intensity (30 µM/DMSO) [4] [%] | DDA-MS / % Intensity (30 µM/DMSO) [5] [%] | DDA-MS / % Intensity (30 µM/DMSO) [6] [%] | DDA-MS / % Intensity (30 µM/DMSO) [7] [%] | DDA-MS / % Intensity (30 µM/DMSO) [8] [%] | DDA-MS / % Intensity (30 µM/DMSO) [9] [%] | DDA-MS / % Intensity (30 µM/DMSO) [10] [%] | DDA-MS / % Intensity (30 µM/DMSO) [11] [%] | DDA-MS / % Intensity (30 µM/DMSO) [12] [%]
1 | COc1cc(F)ccc1-c1ncnc(Nc2cccc(C[S@](C)(=N)=O)c2)n1 [BAY-1143572] | 2.99 | 3.36 |  |  |  |  |  |  |  |  |  | 
2 | COc1cc(F)ccc1-c1cc(Nc2cc(CS(C)(=N)=O)ccn2)ncc1F (centres unmarked) [BAY-1251152] | > 10 | > 10 |  |  |  |  |  |  |  |  |  | 
3 | Cc1nc(Nc2ncc(C(=O)Nc3c(C)cccc3Cl)s2)cc(N2CCN(CCO)CC2)n1 [dasatinib] |  |  | 1.826 | 35.23 | 9.795 | 0.3688 | 10.66 | 3.884 | 4.526 | 9.69 | 0.4709 | 5.626
